{"source": "paper PMC7327383", "about": "“The affinity and selectivity of α‐adrenoceptor antagonists, antidepressants, and antipsychotics for the human α1A, α1B, and α1D‐adrenoceptors” (Pharmacology Research & Perspectives, 2020)", "key": {"human α1B-adrenoceptor": {"target": "T1, human α1B-adrenoceptor (Homo sapiens, UniProt P35368)", "T1 construct": "CHO cells stably expressing either the full‐length human α1A, α1B, or α1D‐adrenoceptor", "T1 sequence (P35368 1-520)": "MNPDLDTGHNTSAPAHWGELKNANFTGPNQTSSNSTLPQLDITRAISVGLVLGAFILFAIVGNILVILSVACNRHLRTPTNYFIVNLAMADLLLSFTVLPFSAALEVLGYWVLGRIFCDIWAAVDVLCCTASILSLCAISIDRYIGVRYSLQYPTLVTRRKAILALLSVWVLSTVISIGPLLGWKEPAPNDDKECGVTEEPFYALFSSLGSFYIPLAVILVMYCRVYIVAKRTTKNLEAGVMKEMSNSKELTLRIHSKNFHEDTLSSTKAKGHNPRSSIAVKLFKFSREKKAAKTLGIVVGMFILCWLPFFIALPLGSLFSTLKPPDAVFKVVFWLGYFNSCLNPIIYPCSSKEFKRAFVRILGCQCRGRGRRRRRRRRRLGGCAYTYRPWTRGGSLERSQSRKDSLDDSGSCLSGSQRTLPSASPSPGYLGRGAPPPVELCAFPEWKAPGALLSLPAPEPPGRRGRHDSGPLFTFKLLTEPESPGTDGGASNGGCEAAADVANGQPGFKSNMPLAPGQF", "assay": "[3H]prazosin whole-cell competition binding, CHO-α1B cells", "settings": "for IC50: read-out: Log IC50 α1B (converted)"}, "[1]": {"target": "T2, full-length human α1D-adrenoceptor (Homo sapiens, UniProt P25100)", "T2 sequence (P25100 1-572)": "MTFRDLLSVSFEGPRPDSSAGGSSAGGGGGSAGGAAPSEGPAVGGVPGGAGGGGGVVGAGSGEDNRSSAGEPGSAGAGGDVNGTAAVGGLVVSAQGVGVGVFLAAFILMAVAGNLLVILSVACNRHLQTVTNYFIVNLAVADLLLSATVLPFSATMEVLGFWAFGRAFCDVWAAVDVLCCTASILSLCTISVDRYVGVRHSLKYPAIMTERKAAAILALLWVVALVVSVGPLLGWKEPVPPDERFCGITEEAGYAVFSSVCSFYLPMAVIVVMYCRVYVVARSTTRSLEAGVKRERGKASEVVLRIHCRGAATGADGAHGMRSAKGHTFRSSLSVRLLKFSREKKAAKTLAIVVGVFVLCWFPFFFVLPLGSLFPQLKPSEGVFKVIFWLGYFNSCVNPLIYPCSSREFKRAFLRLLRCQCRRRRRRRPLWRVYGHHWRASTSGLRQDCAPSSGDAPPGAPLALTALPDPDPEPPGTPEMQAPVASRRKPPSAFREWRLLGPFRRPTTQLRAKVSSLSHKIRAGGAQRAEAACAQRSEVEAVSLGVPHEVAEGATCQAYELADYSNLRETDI", "assay": "[3H]prazosin whole-cell competition binding, CHO-α1D cells"}, "human α1A-adrenoceptor": {"target": "T3, human α1A-adrenoceptor (Homo sapiens, UniProt P35348)", "T3 construct": "CHO cells stably expressing either the full‐length human α1A, α1B, or α1D‐adrenoceptor", "T3 sequence (P35348 1-466)": "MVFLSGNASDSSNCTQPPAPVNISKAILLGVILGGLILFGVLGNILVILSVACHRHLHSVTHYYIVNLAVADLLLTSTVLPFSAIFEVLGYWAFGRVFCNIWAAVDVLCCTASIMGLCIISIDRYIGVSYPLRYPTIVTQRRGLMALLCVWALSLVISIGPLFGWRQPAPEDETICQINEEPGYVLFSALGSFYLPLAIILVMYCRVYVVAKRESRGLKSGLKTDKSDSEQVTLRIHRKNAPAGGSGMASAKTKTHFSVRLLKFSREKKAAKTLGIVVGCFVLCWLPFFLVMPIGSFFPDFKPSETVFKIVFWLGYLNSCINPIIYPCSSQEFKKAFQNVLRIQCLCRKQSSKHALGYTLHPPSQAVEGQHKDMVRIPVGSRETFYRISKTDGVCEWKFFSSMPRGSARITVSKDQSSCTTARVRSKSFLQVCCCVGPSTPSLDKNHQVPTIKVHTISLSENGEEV", "assay": "[3H]prazosin whole-cell competition binding, CHO-α1A cells", "settings": "single-component inhibition curve; given as log KD (negative); mean ± SE mean"}, "[2]": {"settings": "Log KD α1D, single-component inhibition curve, given as log KD (negative), mean ± SE mean"}, "[3]": {"settings": "single-component inhibition curve, given as log KD (negative), mean ± SE mean, read-out: Log KD α1B (converted)"}, "[4]": {"settings": "Log KD α1D site 1, high-affinity component of two-component curve, control, used for selectivity"}, "[5]": {"settings": "low-affinity component of two-component curve, control"}, "[6]": {"settings": "percentage of inhibition through first component, control"}, "[7]": {"settings": "two-component inhibition curve, proportion of site 1"}, "[8]": {"settings": "single-component inhibition curve, given as log KD (negative), mean ± SE mean"}}, "note": "Read-outs that look alike come from different tables or passages of the source."}
{"smiles": "CN(C)CCCC1(c2ccc(F)cc2)OCc2cc(C#N)ccc21", "note": "(centres unmarked) [Citalopram]", "values": [{"measurement": "IC50", "setting": "human α1B-adrenoceptor", "result": "> 100000", "unit": "nM"}, {"measurement": "Kd", "setting": "[1]; [2]", "result": 12300, "unit": "nM"}]}
{"smiles": "O=C1[C@@H]2[C@H]3CC[C@H](C3)[C@@H]2C(=O)N1C[C@@H]1CCCC[C@H]1CN1CCN(c2nsc3ccccc23)CC1", "note": "[Lurasidone]", "values": [{"measurement": "Kd", "setting": "human α1B-adrenoceptor; [3]", "result": 67.6, "unit": "nM"}, {"measurement": "Kd", "setting": "[1]; [4]", "result": 6.46, "unit": "nM"}, {"measurement": "Log KD α1D site 2", "setting": "[1]; [5]", "result": "−5.92 ± 0.06"}, {"measurement": "% site 1 α1D", "setting": "[1]; [6]", "result": "24.8 ± 3.1", "unit": "% site 1"}, {"measurement": "% site 1 α1D", "setting": "[1]; [7]", "result": "-8.19 ± 0.10 -5.92 ± 0.06 24.8 ± 3.1% site 1"}]}
{"smiles": "O=c1[nH]c2ccccc2n1CCCN1CCC(n2c(=O)[nH]c3cc(Cl)ccc32)CC1", "note": "[Domperidone]", "values": [{"measurement": "Kd", "setting": "human α1B-adrenoceptor; [3]", "result": 3160, "unit": "nM"}, {"measurement": "Kd", "setting": "[1]; [2]", "result": 1050, "unit": "nM"}]}
{"smiles": "CNCCC(Oc1ccc(C(F)(F)F)cc1)c1ccccc1", "note": "(centres unmarked) [Fluoxetine]", "values": [{"measurement": "Kd", "setting": "[1]; [2]", "result": 12600, "unit": "nM"}]}
{"smiles": "CC(COc1ccccc1)N(CCCl)Cc1ccccc1", "note": "(centres unmarked) [Phenoxybenzamine]", "values": [{"measurement": "Kd", "setting": "human α1B-adrenoceptor; high-affinity component of two-component curve, control, read-out: Log KD α1B site 1 (converted)", "result": 20.4, "unit": "nM"}, {"measurement": "Log KD α1B site 2", "setting": "human α1B-adrenoceptor; [5]", "result": "−5.57 ± 0.06"}, {"measurement": "% site 1, α1B", "setting": "human α1B-adrenoceptor; share of site 1 in the two-component inhibition curve", "result": "-7.69 ± 0.06 -5.57 ± 0.06 67.5 ± 2.5% site 1"}, {"measurement": "% site 1, α1B", "setting": "human α1B-adrenoceptor; [7]", "result": "-7.69 ± 0.06 -5.57 ± 0.06 67.5 ± 2.5% site 1"}, {"measurement": "Kd", "setting": "[1]", "result": 3.72, "unit": "nM"}, {"measurement": "Log KD α1D site 2", "setting": "[1]; [5]", "result": "−5.42 ± 0.08"}, {"measurement": "% site 1 α1D", "setting": "[1]; [7]", "result": "-8.43 ± 0.19 -5.42 ± 0.08 39.1 ± 2.0% site 1"}]}
{"smiles": "COc1ccccc1N1CCN(CCn2c(=O)[nH]c3c([nH]c4ccccc43)c2=O)CC1", "note": "[3‐MPPI]", "values": [{"measurement": "Log KD α1A", "setting": "human α1A-adrenoceptor", "result": "−9.57 ± 0.06"}, {"measurement": "Log KD α1B", "setting": "human α1B-adrenoceptor; [8]", "result": "−8.59 ± 0.03"}]}
{"smiles": "CC(CN(C)C)CN1c2ccccc2CCc2ccccc21", "note": "(centres unmarked) [Trimipramine]", "values": [{"measurement": "Kd", "setting": "human α1B-adrenoceptor; [3]", "result": 794, "unit": "nM"}, {"measurement": "Kd", "setting": "[1]; [2]", "result": 1020, "unit": "nM"}]}
{"smiles": "O=C1CCc2ccc(OCCCCN3CCN(c4cccc(Cl)c4Cl)CC3)cc2N1", "note": "[Aripiprazole]", "values": [{"measurement": "Kd", "setting": "[1]; [2]", "result": 708, "unit": "nM"}]}
{"smiles": "CNCCCN1c2ccccc2CCc2ccccc21", "note": "[Desipramine]", "values": [{"measurement": "Kd", "setting": "human α1B-adrenoceptor; [3]", "result": 2690, "unit": "nM"}, {"measurement": "Kd", "setting": "[1]; [2]", "result": 3470, "unit": "nM"}]}
{"smiles": "COc1cc2nc(N3CCN(C(=O)COc4c(OC)cccc4C(C)C)CC3)nc(N)c2cc1OC", "note": "[Rec15-2615]", "values": [{"measurement": "Log KD α1D", "setting": "[1]; log KD from 3H-prazosin whole cell binding, CHO cells, mean ± s.e.mean", "result": "-7.89 ± 0.07"}]}
{"smiles": "Cc1ccc(N(CC2=NCCN2)c2cccc(O)c2)cc1", "note": "[Phentolamine]", "values": [{"measurement": "% site 1 α1D", "setting": "[1]; [6]", "result": "60.5 ± 3.8", "unit": "% site 1"}]}
{"smiles": "CN1CCN2c3ncccc3Cc3ccccc3C2C1", "note": "(centres unmarked) [Mirtazepine]", "values": [{"measurement": "Log KD α1B", "setting": "human α1B-adrenoceptor; [8]", "result": "−5.36 ± 0.03"}]}
{"smiles": "CN(C)CCC=C1c2ccccc2COc2ccccc21", "note": "[Doxepin]", "values": [{"measurement": "Kd", "setting": "human α1B-adrenoceptor; [3]", "result": 661, "unit": "nM"}, {"measurement": "Kd", "setting": "[1]; [2]", "result": 537, "unit": "nM"}]}
{"smiles": "COc1cccc(OC)c1OCCNCC1COc2ccccc2O1", "note": "(centres unmarked) [WB4104]", "values": [{"measurement": "Log KD α1A", "setting": "human α1A-adrenoceptor", "result": "−9.03 ± 0.04"}]}
{"smiles": "CCOc1ccccc1OCCN[C@H](C)Cc1ccc(OC)c(S(N)(=O)=O)c1", "note": "[Tamsulosin]", "values": [{"measurement": "Kd", "setting": "human α1B-adrenoceptor; Log KD α1B, +1 mmol/L sodium thiosulphate, ligand preincubated 30 min with thiosulphate, single-component curve (column Log KD site 1)", "result": 7.41, "unit": "nM"}, {"measurement": "Kd", "setting": "human α1B-adrenoceptor; [3]", "result": 7.59, "unit": "nM"}, {"measurement": "Log KD α1D site 2", "setting": "[1]", "result": "−5.67 ± 0.15"}, {"measurement": "Log KD α1D site 2, +1 mmol/L sodium thiosulphate", "setting": "[1]", "result": "−5.60 ± 0.08"}, {"measurement": "effect of sodium thiosulfate preincubation on binding", "setting": "[1]; 1 mmol/L sodium thiosulfate, tamsulosin at all three receptors (Table 2)", "result": "no effect"}, {"measurement": "Kd", "setting": "[1]; Log KD α1D site 1, +1 mmol/L sodium thiosulphate, two-component curve, high-affinity component", "result": 0.776, "unit": "nM"}, {"measurement": "Kd", "setting": "[1]; [4]", "result": 0.661, "unit": "nM"}, {"measurement": "% site 1 α1D, +1 mmol/L sodium thiosulphate", "setting": "[1]; two-component curve", "result": "44.0 ± 2.8", "unit": "%"}, {"measurement": "% site 1 α1D", "setting": "[1]; [7]", "result": "-9.18 ± 0.08 -5.67 ± 0.15 54.6 ± 3.7% site 1"}]}
{"smiles": "COc1cc2nc(N3CCN(C(=O)C4CCCO4)CC3)nc(N)c2cc1OC", "note": "(centres unmarked) [Terazosin]", "values": [{"measurement": "Kd", "setting": "[1]; [2]", "result": 19.5, "unit": "nM"}]}
{"smiles": "COCCCC/C(=N\\OCCN)c1ccc(C(F)(F)F)cc1", "note": "[Fluvoxamine]", "values": [{"measurement": "IC50", "setting": "human α1B-adrenoceptor", "result": "> 100000", "unit": "nM"}, {"measurement": "Kd", "setting": "[1]; [2]", "result": 10700, "unit": "nM"}]}
{"smiles": "O=c1n(CCCN2CCN(c3cccc(Cl)c3)CC2)nc2ccccn12", "note": "[Trazodone]", "values": [{"measurement": "Kd", "setting": "human α1B-adrenoceptor; [3]", "result": 275, "unit": "nM"}, {"measurement": "Kd", "setting": "[1]; [2]", "result": 417, "unit": "nM"}]}
